Data: US9150837B2, “Polyethylene glycolated superoxide dismutase mimetics” (Galera Therapeutics, LLC, priority 2004, dated 2015)

System: carrageenan-induced hyperalgesia
Settings: 0.1 mg/kg, s.c.
Method: Male Sprague-Dawley rats (175-200 g, Harlan Sprague Dawley, Indianapolis, Ind., USA) were housed and cared for in accordance with the guidelines of the Institutional Animal Care and Use Committee and in accordance with NIH guidelines on laboratory animal welfare. Rats received a subplantar injection of carrageenan (0.1 ml of a 1% suspension in 0.85% saline) into the right hind paw. A hyperalgesic response to heat was determined in the animals by Hargreaves' method (Hargreaves et al., 1988). Rats were individually confined and acclimated to Plexiglas chambers for 30 min. A mobile unit consisting of a high intensity projector bulb was positioned to deliver a thermal stimulus directly to an individual hind paw from beneath the chamber. The withdrawal latency period of injected and contralateral paws was determined to the nearest 0.1 sec with an electronic clock circuit and thermocouple. […] Each point will represent the change in withdrawal latency compared with control measurements taken prior to carrageenan injection.

CN1CC[C@]23c4c5ccc(O)c4O[C@H]2[C@@H](O)C=C[C@H]3[C@H]1C5 [morphine]
inhibition of hyperalgesia: modest inhibition of hyperalgesia
